Consider nine compounds from patent publication US10624340B2, “Chemical combinations for attracting Vespidae” (priority 2017, dated 2020).

“And” between values parts separate entries of the source, which are not always exact repeats. Identical values can stand only once.

Common to all, as to format: in vivo, V. pensylvanica
In assay [1] the test system is Vespidae. Briefly: Box attraction test of single test agents (Example 1). The note with it: 500 μL test agent in white box, 15 min tests, two tests, San Mateo County, July 2016; acetic acid 5%, citric acid 750 mM, ethanol 40%.
The subject of assay [2] is Vespidae. Briefly: Box attraction test of heptyl butyrate with citric, malic or tartaric acid (Experiment 3). As to conditions: 500 μL of each agent, white box, 15 min tests, three tests, July 2017, acid alone, heptyl butyrate alone and combination run together, * P < 0.05 vs heptyl butyrate alone. As for the experimental part:
Materials and Methods. The third experiment evaluated combinations of heptyl butyrate and citric acid, malic acid, and tartaric acid versus heptyl butyrate alone as baits for Vespidae.
Attraction Measurements. Testing the efficacy of attraction of the chemicals was conducted using an apparatus that allows visualization of the Vespidae to an area with the attractant. This can be prepared in a variety of ways including the use of white 4-sided boxes in which the different attractants are placed at the bottom of the box. Attraction of the Vespidae to the boxes is visualized and Vespidae are counted when they fly into the plane of the box toward the attractant. Each experiment lasted 15 minutes and every 5 minutes, the boxes would be cleared of Vespidae and rotated counterclockwise to eliminate any possible effect of direction. Each experiment was conducted three times over the course of one day, for a total of 9 replicates per test.
Boxes were prepared using white paper (one foot square) and applying them to equal sizes of cardboard to create a 4-sided box with the white paper in the inside of the box. Boxes were placed in a triangle pattern on the ground and spaced equally three to four feet apart. Disposable plates with clipped-on absorbent material in them were placed in the bottom on the boxes. Each tested combination of attractants was poured onto the absorbent material on the plate and placed into a testing box.
Chemical Treatments. Four chemical treatments were selected and combined with heptyl butyrate and compared to heptyl butyrate alone as baits for Vespidae. Chemicals combined with heptyl butyrate included citric acid solution (5 grams in 50 mLs of water), malic acid (6 grams in 50 mLs of water), and tartaric acid (7 grams in 50 mLs of water). Experiment 3 used 500 μL of each test agent combined for a total of 1000 μL total volume in each test. The heptyl butyrate test used 500 μL of water and 500 µL of heptyl butyrate.

Assay [3] concerns Vespidae. Briefly: 14-day trapping test in RESCUE Reusable Yellowjacket traps (Experiment 4). As to conditions: 2 mL heptyl butyrate with or without 2 mL acid solution in trap, hung 14 days, counted day 15. As to the method:
Materials and Methods. The fourth experiment evaluated combinations of heptyl butyrate and citric acid, malic acid, and tartaric acid versus heptyl butyrate alone as baits for Vespidae. Heptyl butyrate was included for comparison because of its known attractiveness to V. pensylvanica (Davis et al., 1969, Supra).
Attraction Measurements. Testing the efficacy of attraction of the chemicals was conducted using four standard commercially-available RESCUE Reusable Yellowjacket® traps filled with the various test agents. In this experiment, the traps were set and hung 5-6 feet off of the ground with all traps separated by 3-4 feet from one another. Chemical treatments were added to the attractant chambers (cotton absorbant material) of the trap and hung for 14 days. Measurements of the number of trapped Vespidae were made on day 15.
Chemical Treatments. Four chemical treatments were selected and combined with heptyl butyrate and compared to heptyl butyrate alone as baits for Vespidae. Chemicals combined with heptyl butyrate included citric acid solution (5 grams in 50 mLs of water), malic acid (6 grams in 50 mLs of water), and tartaric acid (7 grams in 50 mLs of water). Experiment 4 used 2 mL of the standard attractant (heptyl butyrate) as is found in the RESCUE reusable yellowjacket traps for the heptyl butyrate alone test. […]

Turning to `CC(=O)O` [Acetic Acid, acetic acid], the “Total Number of Vespidae Attracted to Single Test Agents, Sum Test 1 + 2” value (from here on “Total Number … Sum Test 1 + 2”) with Vespidae [1] turned out to be 2. With `CCO` [Ethanol, ethanol], in the assay on Vespidae [1], the “Total Number … Sum Test 1 + 2” value was 2. On to `O=C(O)C(O)C(O)C(=O)O` (stereo not shown) [Tartaric Acid, tartaric acid], for which the “Total Number of Vespidae Attracted to Different Test Conditions” value (“Total Number … to Different Test Conditions” below) with Vespidae [2] stood at 15. For the compound `O=C(O)CC(O)C(=O)O` (stereo not shown) [Malic Acid, malic acid], the “Total Number … to Different Test Conditions” value in the assay on Vespidae [2] stood at 19. Regarding `CC(O)C(=O)O` (stereo not shown) [Lactic Acid, lactic acid], the “Total Number … Sum Test 1 + 2” value in the assay on Vespidae [1] is given as 5. Take `CCCCCCCOC(=O)CCC` [Heptyl Butyrate, heptyl butyrate]: the “Total Number … Sum Test 1 + 2” value with Vespidae [1] was 343. The “Total Number … to Different Test Conditions” value with Vespidae [2] was 355 and 590 and 477; in the assay on Vespidae [2] (listed as heptyl butyrate) it was 477 and 355 and 590. For the same compound, the “Total Number of V. Pensylvanica (Vespidae) Trapped During a 14-Day Test” value with Vespidae [3] was 91.

For the compound `O=C(O)CC(O)(CC(=O)O)C(=O)O` [Citric Acid, citric acid], the “Total Number … Sum Test 1 + 2” value with Vespidae [1] was determined as 10. Also, the “Total Number … to Different Test Conditions” value in the assay with Vespidae [2] was found to be 22. On to `CCCC(=O)O` [Butyric Acid, butyric acid], for which the “Total Number … Sum Test 1 + 2” value in the assay with Vespidae [1] is 5. The same measure, in the same setting: the result for `CC(C)CO` [Isobutanol, isobutanol] reads 21.
